# Read-outs that look alike come from different tables or passages of the source.
# What was measured:
# [1] = test system: Agonist, p53; design: method as in PubChem Bioassay AID 651631; conditions: ref PubChem Bioassay AID 651631; cited from earlier work
# [2] = test system: Antagonist, peroxisome proliferator-activated receptor delta (PPARd); design: method as in PubChem Bioassay AID 743215; conditions: ref PubChem Bioassay AID 743215; cited from earlier work
# [3] = test system: Cytotoxicity, Agonist, constitutive androstane receptor (CAR); design: method as in PubChem Bioassay AID 1224836; conditions: ref PubChem Bioassay AID 1224836; cited from earlier work
# [4] = test system: Anti-Inflammatory model; design: method as in PubChem Bioassay AID 1309; conditions: ref PubChem Bioassay AID 1309; cited from earlier work
# [5] = test system: Cytotoxicity, Antagonist, androgen receptor (AR); design: method as in PubChem Bioassay AID 1259242; conditions: ref PubChem Bioassay AID 1259242; cited from earlier work
# [6] = test system: Cytotoxicity, Agonist, Histone H2A.x; design: method as in PubChem Bioassay AID 1224847; conditions: ref PubChem Bioassay AID 1224847; cited from earlier work
# [7] = test system: Antagonist, constitutive androstane receptor (CAR); design: method as in PubChem Bioassay AID 1224838; conditions: ref PubChem Bioassay AID 1224838; cited from earlier work
# [8] = test system: Agonist, AP-1; design: method as in PubChem Bioassay AID 1159528; conditions: ref PubChem Bioassay AID 1159528; cited from earlier work
# [9] = Cytotoxicity in THP-1 cells, SRB method; type: cell-based; conditions: human, THP-1 cells (PMA-treated, adherent)
# Method: The assay was performed following the sulforhodamine B (SRB) method. THP-1 cells (acute human monocytic leukemia cells, ATCC TIB-202) were cultured in a RPMI medium supplemented with 10% fetal bovine serum. A cell suspension was prepared at the density of 1 × 10^6 cells/mL with 2 μL of PMA (phorbol myristyl acetate, Sigma, St. Louis, MO, USA, 30 µg/mL). A portion of 100 μL of this suspension was transferred to the wells of a microplate. The plate was incubated at 37 °C, in a 5% CO2 atmosphere, for about 12 to 16 h to allow cells to adhere. After that, 100 μL of each sample (400, 200, 100, 50 and 25 μg/mL) were added to the wells. The plate was then incubated at 37 °C for 18 h. After incubation, 100 μL of cold trichloroacetic acid (TCA, 10%) solution was added in each well. The plate was incubated at 4 °C for 1 h. The supernatant was discarded and the wells were washed three times with 200 μL of distilled water. Then, the wells were allowed to dry for 24 h. […] The plate was then stirred for 5 min inside the microplate reader. The optical density was measured at 510 nm in a microplate reader. […] Cell viability was calculated according to the formula (A − B/C − B) × 100, where A, B and C corresponds to the absorbance measured for the samples, blank and negative control, respectively. […]
# [10] = test system: Agonist, retinoic acid receptor (RAR); design: method as in PubChem Bioassay AID 1159553; conditions: ref PubChem Bioassay AID 1159553; cited from earlier work
# [11] = test system: Agonist, p53; design: method as in PubChem Bioassay AID 720552; conditions: ref PubChem Bioassay AID 720552; cited from earlier work
# [12] = test system: Anticancer, Yes1 kinase; design: method as in PubChem Bioassay AID 686947; conditions: ref PubChem Bioassay AID 686947; cited from earlier work
# [13] = test system: Agonist, thyroid stimulating hormone receptor (TSHR); design: method as in PubChem Bioassay AID 1224895; conditions: ref PubChem Bioassay AID 1224895; cited from earlier work
# [14] = design: method as in Dar et al. [63]; conditions: ref Dar et al. [63]; cited from earlier work
# [15] = test system: Anticancer, Leukemia; design: method as in PubChem Bioassay AID 328; conditions: ref PubChem Bioassay AID 328; cited from earlier work
# [16] = test system: AP1 Signaling Pathway; design: method as in PubChem Bioassay AID 357; conditions: ref PubChem Bioassay AID 357; cited from earlier work
# [17] = test system: Cytotoxicity, Antagonist, androgen receptor (AR); design: method as in PubChem Bioassay AID 743033; conditions: ref PubChem Bioassay AID 743033; cited from earlier work
# [18] = test system: Anticancer, Leukemia; design: method as in PubChem Bioassay AID 258; conditions: ref PubChem Bioassay AID 258; cited from earlier work
# [19] = test system: Angiogenesis model; design: method as in PubChem Bioassay AID 1117340; conditions: ref PubChem Bioassay AID 1117340; cited from earlier work
# [20] = test system: 1-acylglycerol-3-phosphate O-acyltransferase ABHD5; design: method as in PubChem Bioassay AID 493035; conditions: ref PubChem Bioassay AID 493035; cited from earlier work
# [21] = test system: Antagonist, peroxisome proliferator-activated receptor gamma (PPARg); design: method as in PubChem Bioassay AID 743191; conditions: ref PubChem Bioassay AID 743191; cited from earlier work
smiles,measurement,setting,value
"COc1cc([C@@H]2c3cc4c(cc3[C@H](O)[C@H]3COC(=O)[C@H]23)OCO4)cc(OC)c1OC [Podophyllotoxin, podophyllotoxin]",Exper. Activity,[1],Inactive
same,Exper. Activity,[2],Inactive
same,Exper. Activity,[3],Inactive
same,Exper. Activity,[4],Active
same,Exper. Activity,[5],Inactive
same,Exper. Activity,[6],Inactive
same,Exper. Activity,[7],Active
same,Exper. Activity,[8],Active
same,CC50 at 18 h,[9],400 ± 10.3 mg/L
same,Exper. Activity,[10],Inactive
same,Exper. Activity,[11],Inactive
same,Exper. Activity,[12],Inactive
same,Exper. Activity,[13],Inactive
same,IC50 DPPH sequestration,[14],higher than 250 μg/mL
same,Exper. Activity,[15],Active
same,Exper. Activity,[16],Inactive
same,Exper. Activity,[17],Inactive
same,Exper. Activity,[18],Inactive
same,Exper. Activity,[19],Active
same,Exper. Activity,[20],Inactive
same,Exper. Activity,[21],Inactive
